# Results published in PMC8397297 (ACS Chemical Neuroscience, 2021).
# Key:
# mGAT3 = biological target: T1, mGAT3 (Mus musculus, UniProt P31649); test: [3H]GABA uptake assay in HEK-293 cells stably expressing mGAT3; format: cell-based; conditions: [3H]GABA uptake; read-out: pIC50 ± SEM mGAT3 (converted)
# T1 construct: expressed in transfected cells; host or cells: HEK-293
# T1 sequence (P31649 1-602): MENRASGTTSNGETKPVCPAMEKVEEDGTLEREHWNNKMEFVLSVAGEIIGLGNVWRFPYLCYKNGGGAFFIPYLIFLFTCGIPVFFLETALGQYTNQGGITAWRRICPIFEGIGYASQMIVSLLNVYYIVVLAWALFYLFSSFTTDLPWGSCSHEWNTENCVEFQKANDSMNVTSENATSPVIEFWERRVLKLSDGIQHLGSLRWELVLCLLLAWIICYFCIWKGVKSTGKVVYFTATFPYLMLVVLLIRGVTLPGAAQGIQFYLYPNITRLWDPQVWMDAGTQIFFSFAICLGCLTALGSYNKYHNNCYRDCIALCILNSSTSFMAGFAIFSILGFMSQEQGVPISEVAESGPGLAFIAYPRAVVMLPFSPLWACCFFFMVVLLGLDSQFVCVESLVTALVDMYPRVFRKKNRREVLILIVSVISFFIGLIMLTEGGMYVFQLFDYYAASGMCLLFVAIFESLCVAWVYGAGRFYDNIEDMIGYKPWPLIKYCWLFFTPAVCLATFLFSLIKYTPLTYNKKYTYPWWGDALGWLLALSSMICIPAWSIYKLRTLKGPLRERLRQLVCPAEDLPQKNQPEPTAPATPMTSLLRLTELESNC
# HepG2 cells = test: HepG2 hepatoma cell-based hepatotoxicity assay (MTS); conditions: 72 h of incubation
# Protocol: To investigate the safety of compounds 2RS,4RS-39c, 50a, and 56a, a HepG2 hepatoma cell-based hepatotoxicity assay was used. Compounds were tested at six concentrations (0.1–100 μM).
# Hepatotoxicity and cytotoxicity were estimated according to previously described protocols[62] using the hepatoma HepG2 (ATCC HB-8065) and human embryonic kidney HEK-293 (ATCC CRL1573) cell lines, respectively. In brief, cells were seeded in 96-well plates at a density of 0.7 × 10^4 and cultured at 37 °C in an atmosphere containing 5% CO2. Next, the compounds were added and investigated in quadruplicate at concentrations ranging from 0.1 to 100 μM for 72 h. The antiproliferative drug DX was used as the reference. The CellTiter 96 AQueous nonradioactive cell proliferation assay (MTS) purchased from Promega (Madison, WI, USA) was used for the determination of cell viability. The absorbance at 492 nm was measured using an EnSpire microplate reader (PerkinElmer, Waltham, MA, USA).
# mGAT4 = biological target: T2, mGAT4 (Mus musculus, UniProt P31650); test: [3H]GABA uptake assay in HEK-293 cells stably expressing mGAT4; format: cell-based; conditions: [3H]GABA uptake; read-out: pIC50 ± SEM mGAT4 (converted)
# T2 construct: expressed in transfected cells; host or cells: HEK-293
# T2 sequence (P31650 1-627): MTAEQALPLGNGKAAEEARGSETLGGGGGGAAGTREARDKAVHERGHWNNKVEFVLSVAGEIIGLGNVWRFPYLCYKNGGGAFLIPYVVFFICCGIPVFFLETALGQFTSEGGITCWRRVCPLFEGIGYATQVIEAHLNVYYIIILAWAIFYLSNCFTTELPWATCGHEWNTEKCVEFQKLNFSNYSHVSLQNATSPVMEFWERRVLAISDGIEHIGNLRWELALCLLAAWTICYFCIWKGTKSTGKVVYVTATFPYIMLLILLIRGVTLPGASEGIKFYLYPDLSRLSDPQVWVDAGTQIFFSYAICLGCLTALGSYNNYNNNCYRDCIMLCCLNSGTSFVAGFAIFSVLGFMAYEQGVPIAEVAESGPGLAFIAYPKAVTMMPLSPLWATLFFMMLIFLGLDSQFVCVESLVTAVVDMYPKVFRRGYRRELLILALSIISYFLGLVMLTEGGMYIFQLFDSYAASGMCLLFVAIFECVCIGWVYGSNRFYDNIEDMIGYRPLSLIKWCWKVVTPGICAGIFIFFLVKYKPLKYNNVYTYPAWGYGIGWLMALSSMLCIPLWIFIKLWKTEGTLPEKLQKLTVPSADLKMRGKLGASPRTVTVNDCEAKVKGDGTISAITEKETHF
IC50 (mGAT3) [µM],IC50 (mGAT4) [µM],Compound,concentration with statistically significant (p < 0.0001) decrease in HepG2 cell viability (HepG2 cells; tested 0.1–100 μM) [µM],hepatotoxicity in HepG2 cells (HepG2 cells; concentrations up to 25 μM)
6.61,4.37,"Cc1ccc(CNC(=O)[C@@H](C[C@@H](C)O)N(C)CCC=C2c3ccccc3CCc3ccccc32)cc1 (relative stereo) [Compound 2RS,4RS-39c, 2-((3-(10,11-Dihydro-5H-dibenzo[a,d][7]annulen-5-ylidene)propyl)(methyl)amino)-4-hydroxy-N-(4-methylbenzyl)pentanamide]",25,–
8.51,20.4,"CN(CCON=C(c1ccccc1)c1ccccc1)C(CCN)C(=O)NCc1ccccc1Cl (centres unmarked) [Compound 50a, 4-Amino-N-[(2-chlorophenyl)methyl]-2-[(2-{[(diphenylmethylidene)amino]oxy}ethyl)(methyl)amino]butanamide]",–,–
22.9,9.12,"CN(CCC=C1c2ccccc2CCc2ccccc21)C(CO)C(=O)NCc1ccccc1 (centres unmarked) [Compound 56a, N-Benzyl-2-((3-(10,11-dihydro-5H-dibenzo[a,d][7]annulen-5-ylidene)propyl)(methyl)amino)-3-hydroxypropanamide]",–,did not induce significant hepatotoxicity
